In PubChem BioAssay (NCI):
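Cells were grown in 96-well plates and exposed to each compound for 48 hours at five concentrations; endpoints were interpolated linearly between bracketing concentrations, or set to the highest concentration if not reached. At the GI50, growth is halved. TGI denotes the concentration required for complete inhibition of growth.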

Legend:
Test in all cases: DTP human tumour cell line panel, 48 h
MCF7 breast = system: MCF7 breast
BT-549 breast = system: BT-549 breast
PC-3 prostate = system: PC-3 prostate
T-47D breast = system: T-47D breast
DU-145 prostate = system: DU-145 prostate
MDA-MB-435 = system: MDA-MB-435

Row | Structure (SMILES) | GI50 (MCF7 breast) | TGI (MCF7 breast) | GI50 (BT-549 breast) | TGI (BT-549 breast) | GI50 (PC-3 prostate) | TGI (PC-3 prostate) | GI50 (T-47D breast) | TGI (T-47D breast) | GI50 (DU-145 prostate) | TGI (DU-145 prostate) | GI50 (MDA-MB-435) | TGI (MDA-MB-435)
1 | CCCN(CCC)c1ccc(/C=N/NC(=O)c2cccnc2)c(Cl)c1 | 2.59 µM | 21.1 µM | 12.9 µM | 33.4 µM | 14.1 µM | > 81.3 µM | 1.07 µM | 13.9 µM | 17.8 µM | 49 µM | 2.68 µM | 12.4 µM
2 | NCc1nnn(Cc2ccccc2)c1N |  | > 100 µM |  | > 100 µM |  | > 100 µM |  | > 100 µM |  | > 100 µM |  | > 100 µM
3 | COc1ccc2c(c1)CCC1C2CC[C@]2(C)/C(=N/OC(=O)Cc3ccccc3)CCC12 (stereo partly specified) | 24.7 µM | 54.5 µM | 24.7 µM | 49.4 µM | 18.5 µM | 59.4 µM | 19.5 µM | 52.2 µM | 28.6 µM | 69.2 µM | 16.7 µM | 30.5 µM
4 | COC(=O)C1=C(C(=O)OC)C23C=C(C)C1C2=C(C)C1(CC1)[C@@](C)(O)C3=O (stereo partly specified) | 0.346 µM | > 100 µM | 0.404 µM | 3.3 µM | 0.386 µM | 32.9 µM | 0.515 µM | 6.4 µM | 0.197 µM | > 100 µM |  | 
5 | NS(=O)(=O)c1ccc(N2N=C3c4ccccc4CC3C2c2ccc(Cl)cc2)cc1 (stereo unspecified) | 25 µM | 59.5 µM |  |  | 7.17 µM | 22.6 µM | 32.9 µM | > 100 µM | 14.2 µM | 36.7 µM | 16.1 µM | 37.2 µM
6 | COc1ccc(NC(=O)c2sc3nc(C)c(C(O)c4ccccc4)cc3c2N)cc1 (stereo unspecified) | 0.502 µM | 54.2 µM | 6.13 µM | 51.6 µM | 3.31 µM | > 100 µM | 3.36 µM | 98.3 µM | 3.21 µM | > 100 µM | 0.291 µM | 0.971 µM
7 | COc1ccc([N+](=O)[O-])c(S(=O)(=O)c2ccc(Cl)cc2)n1 | 2.24 µM | 7.29 µM | 2.75 µM | 8.97 µM | 17.3 µM | 33.8 µM | 2.12 µM | 5.41 µM | 9.63 µM | 21.3 µM | 1.75 µM | 3.66 µM
8 | CN(C)CCCc1c[nH]c2ccccc12 |  | > 100 µM |  | > 100 µM |  | > 100 µM |  | > 100 µM |  | > 100 µM |  | > 100 µM
9 | Nc1c(C(=O)Nc2ccccc2Cl)sc2nc3c(cc12)CCCCCC3 | 0.896 µM | 16.7 µM | 3.64 µM | 29.1 µM | 15.4 µM | > 100 µM | 3.88 µM | 17.2 µM | 7.84 µM | > 100 µM | 0.275 µM | 1.1 µM
10 | CCC(=C/[C@H](C)C/C=C/C(C)=C/[C@@H](C)C(=O)[C@@H](C)[C@H](O)[C@@H](C)CC)/C=C/[C@H]1OC(=O)C=C[C@H]1C | < 0.01 µM | 1.18 µM | < 0.01 µM |  | < 0.01 µM | 1.57 µM | < 0.01 µM | 0.88 µM | < 0.01 µM | 2.69 µM | < 0.01 µM | 0.0256 µM
11 | COc1cc(/C=C2\COc3ccc(O)c(O)c3C2=O)cc(OC)c1 | 1.71 µM | 14.6 µM | 1.56 µM | 4.97 µM | 1.61 µM | 7.85 µM | 1.45 µM | 8 µM | 1.71 µM | 4.26 µM | 1.52 µM | 3.98 µM
12 | COc1cc2nc(Nc3cccc(F)c3)nc(Nc3cc(C)[nH]n3)c2cc1OC | 1.73 µM | 3.83 µM | 1.68 µM | 3.2 µM | 1.68 µM | 3.39 µM | 1.36 µM | 4.05 µM | 1.64 µM | 3 µM | 1.63 µM | 3.16 µM
13 | C=C1C(=O)O[C@H]2[C@H]1CC/C(COC(=O)NCc1c[nH]c3ccc(Cl)cc13)=C\CC[C@@]1(C)O[C@@H]21 |  |  | 1.18 µM | 2.61 µM | 1.52 µM | 3.08 µM |  |  | 1.2 µM | 2.65 µM | 1.12 µM | 2.48 µM
14 | COC1=CC(c2ccc[nH]2)=N/C1=C\c1[nH]c(C)c(C(=O)CCCCC(=O)Nc2ccccc2)c1C | 1.37 µM | 2.75 µM | 1.77 µM | 13.4 µM | 1.15 µM | 2.43 µM | 1.99 µM | 6.14 µM | 1.2 µM | 2.5 µM | 1.79 µM | 3.74 µM
15 | Cc1nc(NC(=O)CCCN2C(=O)c3cccc4cccc(c34)C2=O)sc1C(=O)Nc1cc(C(=O)NCCCN(C)C)n(C)c1 | > 100 µM | > 100 µM |  |  | > 100 µM | > 100 µM | > 100 µM | > 100 µM | > 100 µM | > 100 µM | > 100 µM | > 100 µM
16 | COc1ccc(/C=C/c2n[nH]c3ccc(N4CCOC4=O)cc23)cc1 | 1.93 µM | 40.3 µM | 1.14 µM | 5.32 µM | 3.22 µM | 11.2 µM | 3.01 µM | 8.56 µM | 3.43 µM | > 100 µM | 3.2 µM | 38.6 µM
17 | Cc1ccc(S(=O)(=O)N2CCc3ccc(O)c4c3C2Cc2cc(Cl)ccc2-4)cc1 (stereo unspecified) | 1.08 µM | 6.28 µM | 1.95 µM | 9.66 µM | 0.917 µM | 6.8 µM | 1.76 µM | 19.7 µM | 0.912 µM | 2.4 µM | 0.635 µM | 1.45 µM
18 | C[C@@]12CCC(=O)C=C1CC[C@H]1C2=CC[C@]2(C)C1CC[C@@]2(C)O (stereo partly specified) |  | > 100 µM |  | > 100 µM |  | > 100 µM |  | > 100 µM |  | > 100 µM |  | > 100 µM
19 | COC1=CC(c2ccc[nH]2)=N/C1=C\c1ccc[nH]1 | 0.346 µM | 11.9 µM | 0.145 µM | 5.71 µM | 0.158 µM | 13.6 µM | 0.151 µM | 1.77 µM | 0.163 µM | 13.3 µM | 0.0737 µM | 4.24 µM
20 | COc1ccc(-c2ccc(C3CC(c4ccc(Cl)cc4)=NN3)o2)c([N+](=O)[O-])c1 (stereo unspecified) | > 100 µM | > 100 µM | > 100 µM | > 100 µM | > 100 µM | > 100 µM | > 100 µM | > 100 µM | > 100 µM | > 100 µM | > 100 µM | > 100 µM
